# Measured values published in article PMC3298755 (Nature Chemical Biology, 2011).
# Like-named read-outs stand apart in the source and are kept apart here.
# Assays:
# COX-2 in stimulated DRGs [1] = type: cell-based, mouse; details: read-out: IC50 for inhibition of AEA oxidation in DRGs
# FAAH = details: read-out: IC50, FAAH inhibition; in vitro; ref [29]; cited from earlier work
# COX-2 in stimulated DRGs [2] = type: cell-based, mouse
# COX-2 in stimulated DRGs [3] = type: cell-based, mouse; details: read-out: IC50 for inhibition of 2-AG oxidation in DRGs
# stimulated DRGs = assay: Substrate levels; type: cell-based, mouse
# mCOX-2 = target: T1, mCOX-2 (Mus musculus, UniProt Q05769); assay: Inhibition of COX-2 oxygenation of AA, PG formation by LC-MS-MS; type: biochemical
# T1 sequence (Q05769 18-604): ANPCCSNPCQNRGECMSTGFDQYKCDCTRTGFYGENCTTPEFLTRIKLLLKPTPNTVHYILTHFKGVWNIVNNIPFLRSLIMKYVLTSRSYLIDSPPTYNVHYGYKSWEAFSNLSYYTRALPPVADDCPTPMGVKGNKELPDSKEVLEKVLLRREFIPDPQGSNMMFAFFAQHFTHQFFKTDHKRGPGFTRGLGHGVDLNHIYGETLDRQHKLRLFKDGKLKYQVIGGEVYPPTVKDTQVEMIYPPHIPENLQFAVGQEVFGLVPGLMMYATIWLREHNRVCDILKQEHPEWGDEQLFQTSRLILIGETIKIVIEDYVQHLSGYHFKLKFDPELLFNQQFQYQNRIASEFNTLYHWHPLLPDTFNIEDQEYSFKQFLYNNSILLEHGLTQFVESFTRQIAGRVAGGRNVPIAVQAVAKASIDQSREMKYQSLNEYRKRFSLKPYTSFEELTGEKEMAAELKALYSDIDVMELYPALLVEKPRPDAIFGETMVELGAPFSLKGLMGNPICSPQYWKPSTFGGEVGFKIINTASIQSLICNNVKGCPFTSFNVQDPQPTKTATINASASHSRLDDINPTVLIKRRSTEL
"IC50, inhibition of COX-2 oxygenation of AA (result in words) (mCOX-2; 50 μM AA, 15 min pre-incubation, 30 s reaction, LC-MS-MS)",Structure (SMILES),IC50 (COX-2 in stimulated DRGs [1]),IC50 (FAAH),Inhibition of the synthesis of PGs in DRGs (COX-2 in stimulated DRGs [2]),IC50 (COX-2 in stimulated DRGs [3]),Amount of 2-AG in cell extracts (stimulated DRGs),Amount of AA in cell extracts (stimulated DRGs),Amount of AEA in cell extracts (stimulated DRGs),Inhibition of AA oxidation by COX-2 (mCOX-2; at either 5 or 50 μM substrate concentrations),"Inhibition of the synthesis of PGs in DRGs (COX-2 in stimulated DRGs [2]; stimulated DRGs, at concentrations that inhibited PG-G and PG-EA synthesis)"
–,C[C@@H](C(=O)O)c1ccc(-c2ccccc2)c(F)c1 [(R)-flurbiprofen],6 ± 2.7 µM,> 1000 µM,did not inhibit,5.8 ± 2.9 µM,increased,did not increase,increased,–,–
no inhib.,Cc1ccc(Nc2c(F)cccc2Cl)c(CC(=O)O)c1 [Lumiracoxib],–,–,–,–,–,–,–,–,–
–,CC(C)Cc1ccc([C@@H](C)C(=O)O)cc1 [(R)-ibuprofen],–,–,–,–,increased,did not increase,increased,–,–
–,COc1ccc2cc([C@@H](C)C(=O)O)ccc2c1 [(R)-naproxen],–,–,–,–,increased,did not increase,increased,did not inhibit,did not inhibit
